Measured values as given in PMC2646255 (Journal of medicinal chemistry, 2008).

Experiments:
σ2 receptor = target: T1, σ2 receptor (Rattus norvegicus, UniProt Q5U3Y7); assay: NIMH-PDSP binding screen
T1 sequence (Q5U3Y7 1-176): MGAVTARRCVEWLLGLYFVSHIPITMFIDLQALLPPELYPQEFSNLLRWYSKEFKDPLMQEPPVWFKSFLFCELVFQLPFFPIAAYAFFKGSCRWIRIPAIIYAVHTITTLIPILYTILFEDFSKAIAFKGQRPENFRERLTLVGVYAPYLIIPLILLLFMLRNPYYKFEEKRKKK

σ1 receptor = σ1 receptor (Cavia porcellus, UniProt Q60492); assay: NIMH-PDSP binding screen; settings: read-out: inhibition of binding
5-HT2C receptor = assay: NIMH-PDSP binding screen; settings: 10 μM
κ-opiate receptor = assay: NIMH-PDSP binding screen; settings: 10 μM
5-HT2A receptor = assay: NIMH-PDSP binding screen; settings: 10 μM
[1] = assay type: in vivo, rhesus monkeys (Macaca mulatta); settings: 1 mg/kg i.v. at 30 min after [^11C]3, DCPQ-treated monkeys
P-gp [2] = settings: monkey, DCPQ 8 mg/kg or 16 mg/kg i.v. before [^11C]3
[3] = monkey, DCPQ 8 mg/kg i.v.
P-gp [4] = settings: P-gp knockout mouse brain; cited from earlier work

σ1 receptor, sequence (Q60492 whole entry): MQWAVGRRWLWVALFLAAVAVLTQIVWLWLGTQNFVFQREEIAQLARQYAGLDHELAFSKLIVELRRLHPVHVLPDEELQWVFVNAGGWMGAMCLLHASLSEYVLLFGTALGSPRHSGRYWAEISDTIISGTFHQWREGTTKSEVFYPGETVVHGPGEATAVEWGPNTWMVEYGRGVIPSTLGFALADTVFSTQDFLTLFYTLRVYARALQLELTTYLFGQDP

For `CNC(=O)C(CCN1CCC(O)(c2ccc(Cl)cc2)CC1)(c1ccccc1)c1ccccc1` [Compound 3, 4-(4-(4-Chlorophenyl)-4-hydroxypiperidin-1-yl)-2,2-diphenyl-N-methyl-butanamide], the Ki (σ2 receptor; Ki, σ2) was < 10 nM, the inhibition at 10 µM (σ2 receptor; read-out: inhibition of binding) was > 50% and the inhibition at 10 µM (σ1 receptor) was > 50%. The inhibition of binding (5-HT2C receptor) was < 50%, the inhibition of binding (κ-opiate receptor) was < 50% and the inhibition of binding (5-HT2A receptor) was < 50%. For the same compound, the “effect on washout of radioactivity from brain” value [1] was “no discernible effect”.
For `Cl.Cl.Cl.O[C@@H](COc1cccc2ncccc12)CN1CCN(C2c3ccccc3C3C(c4ccccc42)C3(Cl)Cl)CC1` (stereo partly drawn) [DCPQ, (2R)-anti-5-{3-[4-(10,11-dichloromethanodibenzo-suber-5-yl)piperazin-1-yl]-2-hydroxypropoxy}quinoline trihydrochloride, reference compound], the “effect on uptake of radioactivity into pituitary” value (P-gp [2]) was “no effect” and the “effect on rate at which each radiometabolite emerged in plasma” value [3] was “little effect”.
For `CN([11CH3])C(=O)C(CCN1CCC(O)(c2ccc(Cl)cc2)CC1)(c1ccccc1)c1ccccc1` [[^11C]loperamide], the “unchanged radiotracer as share of radioactivity in brain” value (P-gp [4]) is given as ~ 50%.
With `CN(C)C(=O)C(CCN1CCC(O)(c2ccc(Cl)cc2)CC1)(c1ccccc1)c1ccccc1` [loperamide, reference compound] the “effect on washout of radioactivity from brain” value [1] was “no discernible effect”.
